Measured values taken from patent publication US12377106B2, “Piperidinylpyrazine-carboxamide compounds for treating and preventing cancer and for degrading BTK” (NURIX THERAPEUTICS, INC., priority 2021, dated 2025).
“Also recorded” adds a separate entry of the source.

Columns and labels:
patients with CLL = test: Efficacy evaluations in CLL patients; assay type: in vivo, human
Description: (§1) Patients were treated at four different dosage levels of Compound 149: dose level 1 (100 mg), dose level 2 (200 mg), dose level 3 (300 mg), and dose level 4 (400 mg). The objective of the study was to assess safety and tolerability, to identify maximum tolerated dose, and to evaluate PK/PD.
Patients evaluated in this study were treated for diseases or disorders selected from the group consisting of: chronic lymphocytic leukemia (CLL) with BTK C481 mutation (n 20); CLL without BTK C481 mutation (n˜20); mantle cell lymphoma (MCL), marginal zone lymphoma (MZL), Waldenstrom's macroglobulinemia (WM) (n˜20); follicular lymphoma (FL) (n˜20); and diffuse large B cell lymphoma (DLBCL) (n˜20). Heavily pretreated patient population, including double-refractory CLL patients.
Data shown in FIG. 6 confirms that Compound 149 is a potent BTK degrader to solve inhibitor resistance observed with prior therapy.

[1] = tested on: patient with non-GCB (ABC subtype) DLBCL; test: Response of a patient with non-GCB (ABC subtype) DLBCL (Lugano criteria, FDG-PET CT scan); assay type: in vivo, human; details: 300 mg
Description: A heavily pre-treated patient with non-GCB (ABC subtype) DLBCL was enrolled in Compound 149 phase 1 dose-escalation. The patient was treated at a single dosage level of Compound 149: […] (300 mg) for a period of 5 months and ongoing. The objective of the study was to assess safety and tolerability, to identify maximum tolerated dose, and to evaluate PK/PD.
(§2) The patient's response was checked at 8 weeks and 16 weeks. […] Gradual BTK degradation was observed until day 8 day of receiving the 300 mg dose of Compound 149, wherein the maximum BTK degradation was achieved on the 8th day. Consistent with its design, Compound 149 also degraded Ikaros and Aiolos which is responsible for the compound's immunomodulatory activity. […] In the 16-week assessment image, maximum standard uptake value (Max SUV) reduced from 17.6 at screening to 2.5 at the 16-week assessment time with the Deauville five-point scale (5PS; Barrington et al., 2010, Eur J Nucl Med Mol Imaging 37 (10): 1824-33) reducing from 5 to 2.

[2] = tested on: lymphoma cells harboring BTK-C481S mutation; test: Killing of lymphoma cells harboring BTK-C481S mutation (FIG. 6); assay type: cell-based
[3] = Plasma concentrations of compound 149 after once daily oral dosing; assay type: in vivo, human; details: all patients, once daily oral 100 mg or 200 mg
Description: (§3) Compound 149 was administered to human patients in a Phase 1a/lb trial investigating safety and tolerability in relapsed and refractory B cell malignancies. Compound 149 was administered as a once daily oral dose first in an accelerated Phase 1a dose escalation starting at 100 mg on Day 1. The first dose levels are explored in a single patient cohort until a grade 2 adverse event has been observed. Thereafter, a traditional 3+3 escalation design is used. This 100 mg starting dose was predicted to provide similar exposure as that observed in non-human primate studies. Once a dose is selected based on all safety, efficacy, pharmacokinetic, and pharmacodynamic data available, the trial will expand in up to five expansion cohorts.

[4] = Safety and tolerability in patients with relapsed and refractory B cell malignancies; assay type: in vivo; details: for Anemia, Grade ≥ 3 / Clostridium difficile colitis, Grade ≥ 3 / Clostridium difficile infection, Grade ≥ 3 / Cognitive disorder, Grade ≥ 3 / Dyspnea, Grade ≥ 3 / Hypertension, Grade ≥ 3 / Neutropenia, Grade ≥ 3 / Pain in extremity, Grade ≥ 3 / Upper resp. tract infection, Grade ≥ 3: all patients
Description: as §3, §1
Safety population included 19 subjects, and data is summarize in Table 6 below. Two subjects were assigned to the 100 mg cohort but treatment was not entered in the electronic data capture (EDC) at time of extract.

Ikaros = molecular target: T1, Ikaros (Homo sapiens, UniProt Q13422+Q96SW2); test: Ikaros degradation in the patient; assay type: in vivo; details: DLBCL patient, 300 mg
T1 construct: peripheral blood was obtained from all patients for baseline and post Compound 149 therapy assessment of BTK and Ikaros degradation; endogenous in cells; host or cells: peripheral blood cells of a DLBCL patient
T1 sequence (Q13422 whole entry): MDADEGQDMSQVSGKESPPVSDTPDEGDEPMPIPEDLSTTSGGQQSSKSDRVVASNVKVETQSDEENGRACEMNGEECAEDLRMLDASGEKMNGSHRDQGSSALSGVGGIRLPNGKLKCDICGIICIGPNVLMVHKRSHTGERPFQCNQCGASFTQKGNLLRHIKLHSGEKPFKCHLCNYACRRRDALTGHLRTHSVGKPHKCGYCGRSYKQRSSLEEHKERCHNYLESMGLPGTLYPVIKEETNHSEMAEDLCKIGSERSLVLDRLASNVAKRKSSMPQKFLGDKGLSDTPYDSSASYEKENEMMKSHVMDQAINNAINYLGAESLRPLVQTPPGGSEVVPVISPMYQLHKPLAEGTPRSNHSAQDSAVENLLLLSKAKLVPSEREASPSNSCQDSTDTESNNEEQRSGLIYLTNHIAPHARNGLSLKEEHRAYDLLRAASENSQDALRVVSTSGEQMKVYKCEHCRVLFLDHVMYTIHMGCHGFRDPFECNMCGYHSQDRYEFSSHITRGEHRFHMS
T1 sequence (Q96SW2 whole entry): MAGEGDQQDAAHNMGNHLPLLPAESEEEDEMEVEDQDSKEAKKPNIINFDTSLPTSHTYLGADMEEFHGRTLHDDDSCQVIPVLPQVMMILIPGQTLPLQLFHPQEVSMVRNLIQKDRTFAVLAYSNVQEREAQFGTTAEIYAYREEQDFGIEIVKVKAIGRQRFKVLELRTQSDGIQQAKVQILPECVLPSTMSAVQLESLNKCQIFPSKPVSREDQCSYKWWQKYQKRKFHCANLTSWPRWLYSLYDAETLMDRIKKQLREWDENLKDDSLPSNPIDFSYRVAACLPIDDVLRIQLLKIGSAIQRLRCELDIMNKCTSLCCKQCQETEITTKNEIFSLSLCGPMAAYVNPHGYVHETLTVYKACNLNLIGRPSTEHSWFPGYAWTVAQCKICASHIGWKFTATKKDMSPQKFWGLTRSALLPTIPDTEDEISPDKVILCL
T1 sequence (Q16531 whole entry partner): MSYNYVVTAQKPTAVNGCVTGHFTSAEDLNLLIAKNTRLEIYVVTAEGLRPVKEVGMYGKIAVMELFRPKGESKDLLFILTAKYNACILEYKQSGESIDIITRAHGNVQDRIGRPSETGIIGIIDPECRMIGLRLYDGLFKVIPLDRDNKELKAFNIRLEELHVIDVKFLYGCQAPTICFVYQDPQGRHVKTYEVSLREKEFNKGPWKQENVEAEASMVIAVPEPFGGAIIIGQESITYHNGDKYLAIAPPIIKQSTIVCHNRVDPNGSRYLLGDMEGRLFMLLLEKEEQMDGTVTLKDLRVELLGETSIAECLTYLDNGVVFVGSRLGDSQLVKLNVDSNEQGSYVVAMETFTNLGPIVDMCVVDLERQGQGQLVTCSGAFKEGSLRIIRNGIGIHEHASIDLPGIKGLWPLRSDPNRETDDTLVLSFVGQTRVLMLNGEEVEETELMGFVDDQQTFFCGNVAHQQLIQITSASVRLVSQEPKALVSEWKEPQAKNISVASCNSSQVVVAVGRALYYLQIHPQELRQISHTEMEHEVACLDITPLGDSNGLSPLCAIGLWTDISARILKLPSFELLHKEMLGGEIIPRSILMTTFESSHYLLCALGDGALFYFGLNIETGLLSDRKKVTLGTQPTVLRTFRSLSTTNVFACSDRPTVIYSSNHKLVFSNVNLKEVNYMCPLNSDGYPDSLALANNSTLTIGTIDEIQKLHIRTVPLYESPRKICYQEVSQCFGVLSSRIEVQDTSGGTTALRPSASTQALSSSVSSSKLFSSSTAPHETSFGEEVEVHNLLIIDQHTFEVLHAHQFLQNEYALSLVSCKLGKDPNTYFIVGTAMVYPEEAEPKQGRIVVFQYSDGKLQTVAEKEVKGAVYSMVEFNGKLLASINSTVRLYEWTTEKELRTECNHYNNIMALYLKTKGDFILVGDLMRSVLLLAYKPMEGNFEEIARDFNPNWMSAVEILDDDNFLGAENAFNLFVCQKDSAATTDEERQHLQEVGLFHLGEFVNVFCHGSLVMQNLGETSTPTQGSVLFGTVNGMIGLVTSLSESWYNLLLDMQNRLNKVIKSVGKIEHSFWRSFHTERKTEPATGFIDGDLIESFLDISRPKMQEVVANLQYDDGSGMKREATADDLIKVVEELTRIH
Description: Following informed consent, peripheral blood was obtained from all patients for baseline and post Compound 149 therapy assessment of BTK and Ikaros degradation. Patient blood (5 mL) was drawn and immediately fixed in a 5 mL CytoChex™ BCT tube and stored at ambient temperature until assessment via flow cytometry. Blood samples were analyzed within 3 days post sample collection at Precision for Medicine. Additional blood was also drawn into 8 mL BD Vacutainer® CPT™ Cell Preparation Tube with Sodium Citrate. Peripheral blood mononuclear cells (PBMCs) were processed, and viability frozen according to manufacturer's protocol. The patient's response was checked at 8 weeks and 16 weeks. […] Gradual BTK degradation was observed until day 8 day of receiving the 300 mg dose of Compound 149, wherein the maximum BTK degradation was achieved on the 8th day. Consistent with its design, Compound 149 also degraded Ikaros and Aiolos which is responsible for the compound's immunomodulatory activity. […] In the 16-week assessment image, maximum standard uptake value (Max SUV) reduced from 17.6 at screening to 2.5 at the 16-week assessment time with the Deauville five-point scale (5PS; Barrington et al., 2010, Eur J Nucl Med Mol Imaging 37 (10): 1824-33) reducing from 5 to 2.

Aiolos = molecular target: T2, Aiolos (Homo sapiens, UniProt Q96SW2+Q9UKT9); test: Aiolos degradation in the patient; assay type: in vivo; details: DLBCL patient, 300 mg
T2 construct: Compound 149 also degraded Ikaros and Aiolos; endogenous in cells
T2 sequence (Q9UKT9 whole entry): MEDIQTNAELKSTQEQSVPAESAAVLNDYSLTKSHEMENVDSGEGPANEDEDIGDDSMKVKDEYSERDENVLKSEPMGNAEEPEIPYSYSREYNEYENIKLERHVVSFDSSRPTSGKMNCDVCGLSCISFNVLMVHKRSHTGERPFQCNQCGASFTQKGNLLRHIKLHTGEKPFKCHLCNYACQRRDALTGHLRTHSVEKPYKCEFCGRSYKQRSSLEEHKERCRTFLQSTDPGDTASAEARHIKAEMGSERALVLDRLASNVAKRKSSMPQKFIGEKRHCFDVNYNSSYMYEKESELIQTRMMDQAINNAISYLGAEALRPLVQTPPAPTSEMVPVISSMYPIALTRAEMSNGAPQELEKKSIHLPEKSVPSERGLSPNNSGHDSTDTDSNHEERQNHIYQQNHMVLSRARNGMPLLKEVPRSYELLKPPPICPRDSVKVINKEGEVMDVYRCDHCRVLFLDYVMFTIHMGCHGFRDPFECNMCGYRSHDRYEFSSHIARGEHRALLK
T2 sequence (Q96SW2 whole entry): as the sequence (Q96SW2 whole entry) above
T2 sequence (Q16531 whole entry partner): as the sequence (Q16531 whole entry partner) above
Description: as §2

NC(=O)c1ncc(N2CCCCC2)nc1Nc1ccc(C2CCN(C[C@@H]3CCN(c4ccc5c(c4)C(=O)N(C4CCC(=O)NC4=O)C5=O)C3)CC2)cc1 (stereo partly drawn) [Compound 149]
clinical activity / benefit in CLL patients (patients with CLL; CLL patients with prior therapy (median of six prior treatments), 100 mg, FIG. 4): durable benefit; also recorded: showed clinical activity
nodal reductions and/or lymphocytosis (patients with CLL; all evaluable CLL patients, FIG. 5): nodal reductions and/or lymphocytosis observed in all patients treated
responses in BTK inhibitor-resistant CLL patients (patients with CLL; evaluable CLL patients, FIG. 5): responses in patients with resistance mutations to covalent and non-covalent BTK inhibitors
Deauville five-point scale (5PS) ([1]; DLBCL patient, 16-week assessment, 5 at screening): 2
maximum standard uptake value (Max SUV) ([1]; DLBCL patient, 16-week assessment, 17.6 at screening): 2.5
response per Lugano criteria at 8 weeks ([1]; heavily pre-treated non-GCB (ABC subtype) DLBCL patient): complete response
response at the 16-week assessment (FDG-PET CT Scan Disease Assessment) ([1]; non-GCB (ABC subtype) DLBCL patient, FIG. 9): complete confirmed response
killing of lymphoma cells [2]: kills lymphoma cells harboring BTK-C481S mutation
steady state plasma concentrations achieved by [3]: ≤ 8 days
Anemia, Grade ≥ 3 ([4]; 100 mg (N = 10)): 1 (10%) n (%)
Clostridium difficile colitis, Grade ≥ 3 ([4]; 100 mg (N = 10)): 0 (0%) n (%)
Clostridium difficile infection, Grade ≥ 3 ([4]; 100 mg (N = 10)): 0 (0%) n (%)
Cognitive disorder, Grade ≥ 3 ([4]; 100 mg (N = 10)): 0 (0%) n (%)
Dyspnea, Grade ≥ 3 ([4]; 100 mg (N = 10)): 0 (0%) n (%)
Hypertension, Grade ≥ 3 ([4]; 100 mg (N = 10)): 0 (0%) n (%)
Neutropenia, Grade ≥ 3 ([4]; 100 mg (N = 10)): 1 (10%) n (%)
Pain in extremity, Grade ≥ 3 ([4]; 100 mg (N = 10)): 0 (0%) n (%)
Upper resp. tract infection, Grade ≥ 3 ([4]; 100 mg (N = 10)): 0 (0%) n (%)
Anemia, Grade ≥ 3 ([4]; 200 mg (N = 6)): 1 (16.7%) n (%)
Clostridium difficile colitis, Grade ≥ 3 ([4]; 200 mg (N = 6)): 1 (16.7%) n (%)
Clostridium difficile infection, Grade ≥ 3 ([4]; 200 mg (N = 6)): 1 (16.7%) n (%)
Cognitive disorder, Grade ≥ 3 ([4]; 200 mg (N = 6)): 0 (0%) n (%)
Dyspnea, Grade ≥ 3 ([4]; 200 mg (N = 6)): 1 (16.7%) n (%)
Hypertension, Grade ≥ 3 ([4]; 200 mg (N = 6)): 1 (16.7%) n (%)
Neutropenia, Grade ≥ 3 ([4]; 200 mg (N = 6)): 3 (50%) n (%)
Pain in extremity, Grade ≥ 3 ([4]; 200 mg (N = 6)): 0 (0%) n (%)
Upper resp. tract infection, Grade ≥ 3 ([4]; 200 mg (N = 6)): 1 (16.7%) n (%)
Anemia, Grade ≥ 3 ([4]; 300 mg (N = 3)): 0 (0%) n (%)
Clostridium difficile colitis, Grade ≥ 3 ([4]; 300 mg (N = 3)): 0 (0%) n (%)
Clostridium difficile infection, Grade ≥ 3 ([4]; 300 mg (N = 3)): 0 (0%) n (%)
Cognitive disorder, Grade ≥ 3 ([4]; 300 mg (N = 3)): 1 (33.3%) n (%)
Dyspnea, Grade ≥ 3 ([4]; 300 mg (N = 3)): 0 (0%) n (%)
Hypertension, Grade ≥ 3 ([4]; 300 mg (N = 3)): 0 (0%) n (%)
Neutropenia, Grade ≥ 3 ([4]; 300 mg (N = 3)): 2 (66.7%) n (%)
Pain in extremity, Grade ≥ 3 ([4]; 300 mg (N = 3)): 1 (33.3%) n (%)
Upper resp. tract infection, Grade ≥ 3 ([4]; 300 mg (N = 3)): 0 (0%) n (%)
dose limiting toxicity ([4]; 300 mg, a CLL patient, cognitive AE believed related to immunomodulatory activity): Dose limiting toxicity was observed
dose limiting toxicity (DLT) or serious adverse event (SAE) ([4]; DLBCL patient, 300 mg, 5 months and ongoing): no dose limiting toxicity (DLT) or serious adverse event (SAE) was observed
atrial fibrillation adverse events ([4]; at 100 mg in a patient with MCL and at 200 mg in a patient with CLL): Two AEs of lower grade atrial fibrillation were observed
tolerability / dose limiting toxicities ([4]; humans, 100 mg and 200 mg per dose): well-tolerated with no dose limiting toxicities
Ikaros degradation (Ikaros): degraded
Aiolos degradation (Aiolos): degraded
